In patent publication US20250179103A1, “6-OXODECAHYDROPYRROLO[1,2-A][1,5]DIAZOCINE AND 6-OXODECAHYDRO-4H-PYRROLO[2,1-D][1,5]THIAZOCINE DERIVATIVES AS STAT3 AND STAT6 MODULATORS FOR THE TREATMENT OF CANCER AND INFLAMMATORY CONDITIONS” (Recludix Pharma, Inc., priority 2022, published 2025):

Assays:
[1] = target: T1, Recombinant STAT6 protein (STAT6(W123-T658)) (Homo sapiens, UniProt P42226); assay: STAT6 Fluorescence Polarization (FP) Assay; format: binding; conditions: STAT6(W123-T658) 250 nM, probe 5-FAM-ApYKPFQDLI-NH2 2 nM, 45-minute incubation
T1 construct: Recombinant STAT6 protein (STAT6(W123-T658))
T1 sequence (P42226 123-658): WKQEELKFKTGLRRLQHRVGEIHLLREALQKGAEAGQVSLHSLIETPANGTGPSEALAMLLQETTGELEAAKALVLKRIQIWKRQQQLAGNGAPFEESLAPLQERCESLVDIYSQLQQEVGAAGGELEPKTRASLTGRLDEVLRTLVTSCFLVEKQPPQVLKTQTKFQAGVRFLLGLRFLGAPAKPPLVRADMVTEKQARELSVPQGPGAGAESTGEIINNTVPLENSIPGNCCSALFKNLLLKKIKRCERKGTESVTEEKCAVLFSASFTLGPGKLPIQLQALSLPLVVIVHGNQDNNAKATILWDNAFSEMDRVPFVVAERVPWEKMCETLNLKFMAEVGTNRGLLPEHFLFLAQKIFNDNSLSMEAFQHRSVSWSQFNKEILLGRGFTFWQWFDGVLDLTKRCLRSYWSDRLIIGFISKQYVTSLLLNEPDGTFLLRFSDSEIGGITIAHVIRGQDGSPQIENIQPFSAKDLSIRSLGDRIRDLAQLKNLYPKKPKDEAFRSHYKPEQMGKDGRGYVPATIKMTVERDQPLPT
Method in brief: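 Displacement of a fluorescent phosphotyrosine peptide (5-FAM-ApYKPFQDLI-NH2, 2 nM) from STAT6(W123-T658) (250 nM), 1% DMSO, pH 7.4 HEPES buffer. After 45 min at room temperature, polarization (mP) was plotted versus log compound concentration and fitted by nonlinear regression to give IC50.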

[2] = target: T2, Recombinant STAT3 protein (STAT3(G127-I722)) (Homo sapiens, UniProt P40763); assay: STAT3 Fluorescence Polarization (FP) Assay; format: binding; conditions: STAT3(G127-I722) 25 nM, probe 5-FAM-GpYLPQTV-NH2 2 nM, 45-minute incubation
T2 construct: Recombinant STAT3 protein (STAT3(G127-I722))
Method in brief: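 STAT3(G127-I722), 25 nM, was mixed with 2 nM 5-FAM-GpYLPQTV-NH2 probe in HEPES pH 7.4 buffer with 1% DMSO and serially diluted compound. FP (mP) was read after 45 min at room temperature. IC50 came from nonlinear regression.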

T2 sequence (P40763 127-722): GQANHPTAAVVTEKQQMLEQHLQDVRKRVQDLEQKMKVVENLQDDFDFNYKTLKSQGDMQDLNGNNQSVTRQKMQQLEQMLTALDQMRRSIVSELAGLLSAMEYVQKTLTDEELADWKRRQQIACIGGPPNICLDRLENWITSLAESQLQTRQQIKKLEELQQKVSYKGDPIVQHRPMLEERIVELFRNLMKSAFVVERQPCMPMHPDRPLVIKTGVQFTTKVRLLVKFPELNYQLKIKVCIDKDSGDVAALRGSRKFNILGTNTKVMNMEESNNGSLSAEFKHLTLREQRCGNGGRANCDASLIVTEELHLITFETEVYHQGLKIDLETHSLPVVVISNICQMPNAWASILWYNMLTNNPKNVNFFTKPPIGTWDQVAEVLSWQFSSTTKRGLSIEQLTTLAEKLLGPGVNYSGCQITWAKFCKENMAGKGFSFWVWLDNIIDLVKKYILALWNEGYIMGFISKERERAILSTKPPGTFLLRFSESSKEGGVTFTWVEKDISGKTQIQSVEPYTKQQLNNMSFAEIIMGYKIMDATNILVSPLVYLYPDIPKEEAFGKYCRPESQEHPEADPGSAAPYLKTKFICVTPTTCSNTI

| Structure (SMILES) | IC50 [1] [nM] | IC50 [2] [nM] |
| --- | --- | --- |
| O=C(N[C@H]1CN(C(=O)CCc2ccccc2)CC[C@H]2CC[C@@H](C(=O)Nc3ccc(-c4ccccc4)cc3)N2C1=O)c1cc2cc(C(F)(F)P(=O)(O)O)ccc2[nH]1 [Compound 215, ((2-(((5S,8S,10aR)-8-([1,1′-biphenyl]-4-ylcarbamoyl)-6-oxo-3-(3-phenylpropanoyl)decahydropyrrolo[1,2a][1,5]diazocin-5-yl)carbamoyl)-1H-indol-5-yl)difluoromethyl)phosphonic acid] | ≤ 300 | 100 to 1000 |
| CC(=O)N1CC[C@H]2CC[C@@H](C(=O)N3CCC(c4cccnc4)C3)N2C(=O)[C@@H](NC(=O)c2ccc3ccc(C(F)P(=O)(O)O)cc3c2)C1 (stereo partly drawn) [Compound 355, ((7-(((5S,8S,10a R)-3-acetyl-6-oxo-8-(3-(pyridin-3-yl)pyrrolidine-1-carbonyl)decahydro-pyrrolo [1,2-a][1,5]diazocin-5-yl)carbamoyl)naphthalen-2-yl)fluoromethyl) phosphonic acid] | 300 to 3000 | 1000 to 10000 |
| N#CC1CN(C(=O)C2CCC3CNCCC(NC(=O)c4ccc5ccc(C(F)(F)P(=O)(O)O)cc5c4)C(=O)N32)CC1c1ccccc1 (mixture of isomers) [Compound 211, ((7-(((5S,8S,10aR)-8-((rel-trans)-3-cyano-4-phenylpyrrolidine-1-carbonyl)-6-oxodecahydropyrrolo[1,2-a][1,4]diazocin-5-yl)carbamoyl)naphthalen-2-yl)difluoromethyl)phosphonic acid] | ≤ 300 | 1000 to 10000 |
| CC(=O)N1CC[C@H]2CC[C@@H](C(=O)N(C)c3ccc(C(C)(C)C)cc3)N2C(=O)[C@@H](NC(=O)c2cc3cc(C(F)(F)P(=O)(O)O)ccc3[nH]2)C1 [Compound 136, ((2-(((5S,8S,10aR)-3-acetyl-8-((4-(tert-butyl)phenyl)(methyl)carbamoyl)-6-oxodecahydropyrrolo[1,2-a][1,5]diazocin-5-yl)carbamoyl)-1H-indol-5-yl)difluoromethyl)phosphonic acid] | ≤ 300 | 1000 to 10000 |
| CC(=O)N1CC[C@H]2CC[C@@H](C(=O)N(C)CCC#N)N2C(=O)[C@@H](NC(=O)c2cc3cc(C(F)(F)P(=O)(O)O)ccc3s2)C1 [Compound 90, ((2-(((5S,8S,10aR)-3-acetyl-8-((2-cyanoethyl)(methyl)carbamoyl)-6-oxodecahydropyrrolo[1,2-a][1,5]diazocin-5-yl)carbamoyl)benzo[b]thiophen-5-yl)difluoromethyl)phosphonic acid] | 300 to 3000 | 1000 to 10000 |
| CN(C)C(=O)[C@@H]1CC[C@@H]2CCN(Cc3ccccc3)C[C@H](NC(=O)c3cc4cc(C(F)(F)P(=O)(O)O)ccc4[nH]3)C(=O)N21 [Compound 225, ((2-(((5S,8S,10aR)-3-benzyl-8-(dimethylcarbamoyl)-6-oxodecahydropyrrolo[1,2-a][1,5]diazocin-5-yl)carbamoyl)-1H-indol-5-yl)difluoromethyl)phosphonic acid] | 3000 to 30000 | 1000 to 10000 |
| Cc1ccc2onc(C(=O)N3CC[C@H]4CC[C@@H](C(=O)N5CCN(S(C)(=O)=O)CC5)N4C(=O)[C@@H](NC(=O)c4ccc5ccc(C(F)P(=O)(O)O)cc5c4)C3)c2c1 (stereo partly drawn) [Compound 368, (fluoro(7-(((5S,8S,10aR)-3-(5-methylbenzo[d]isoxazole-3-carbonyl)-8-(4-(methylsulfonyl)piperazine-1-carbonyl)-6-oxodecahydropyrrolo [1,2-a][1,5]diazocin-5-yl)carbamoyl)naphthalen-2-yl)methyl)phosphonic acid] | ≤ 300 | > 10000 |
| CC(=O)N1CC[C@H]2CC[C@@H](C(=O)Nc3ccc4c(cnn4C)c3)N2C(=O)[C@@H](NC(=O)c2cc3cc(C(F)(F)P(=O)(O)O)ccc3s2)C1 [Compound 161, ((2-(((5S,8S,10aR)-3-acetyl-8-((1-methyl-1H-indazol-5-yl)carbamoyl)-6-oxodecahydropyrrolo[1,2-a][1,5]diazocin-5-yl)carbamoyl)benzo[b]thiophen-5-yl)difluoromethyl)phosphonic acid] | 300 to 3000 | 1000 to 10000 |
| CN(C(=O)[C@@H]1CC[C@@H]2CCN(CC(F)F)C[C@H](NC(=O)c3ccc4ccc(C(F)(F)P(=O)(O)O)cc4c3)C(=O)N21)C1CCN(S(C)(=O)=O)CC1 [Compound 244, ((7-(((5S,8S,10aR)-3-(2,2-difluoroethyl)-8-(methyl(1-(methylsulfonyl)piperidin-4-yl)carbamoyl)-6-oxodecahydropyrrolo[1,2-a][1,5]diazocin-5-yl)carbamoyl)naphthalen-2-yl)difluoromethyl)phosphonic acid] | 300 to 3000 | 1000 to 10000 |
| CC(=O)N1CC(NC(=O)[C@@H]2CC[C@@H]3CCN(C(C)=O)C[C@H](NC(=O)c4cc5cc(C(F)(F)P(=O)(O)O)ccc5[nH]4)C(=O)N32)C1 [Compound 24, ((2-(((5S,8S,10aR)-3-acetyl-8-((1-acetylazetidin-3-yl)carbamoyl)-6-oxodecahydropyrrolo[1,2-a][1,5]diazocin-5-yl)carbamoyl)-1H-indol-5-yl)difluoromethyl)phosphonic acid] | 300 to 3000 | 100 to 1000 |
| COC(=O)[C@@H]1CN(C(=O)[C@@H]2CC[C@@H]3CCN(CC(F)F)C[C@H](NC(=O)c4cc5cc(C(F)(F)P(=O)(O)O)ccc5s4)C(=O)N32)C[C@H]1c1ccccc1 (single isomer, unassigned) [Compound 247, ((2-(((5S,8S,10aR)-3-(2,2-difluoroethyl)-8-((3S,4R or 3R,4S)-3-(methoxycarbonyl)-4-phenylpyrrolidine-1-carbonyl)-6-oxodecahydropyrrolo[1,2-a][1,5]diazocin-5-yl)carbamoyl)benzo[b]thiophen-5-yl)difluoromethyl)phosphonic acid] | ≤ 300 | 100 to 1000 |
| O=C(N[C@H]1CN(CC(F)(F)F)CC[C@H]2CC[C@@H](C(=O)N3CC(C(=O)N4CCOCC4)C3)N2C1=O)c1cc2cc(C(F)(F)P(=O)(O)O)ccc2s1 [Compound 277, (difluoro(2-(((5S,8S,10aR)-8-(3-(morpholine-4-carbonyl)azetidine-1-carbonyl)-6-oxo-3-(2,2,2-trifluoroethyl)decahydropyrrolo[1,2-a][1,5]diazocin-5-yl)carbamoyl)benzo[b]thiophen-5-yl)methyl)phosphonic acid] | 3000 to 30000 | ≤ 100 |
| CC(=O)N1CC[C@H]2CC[C@@H](C(=O)N3CCN(C4CC4)C(C#N)C3)N2C(=O)[C@@H](NC(=O)c2cc3cc(C(F)(F)P(=O)(O)O)ccc3s2)C1 (stereo partly drawn) [Compound 63, ((2-(((5S,8S,10aR)-3-acetyl-8-(3-cyano-4-cyclopropylpiperazine-1-carbonyl)-6-oxodecahydropyrrolo[1,2-a][1,5]diazocin-5-yl)carbamoyl)benzo[b]thiophen-5-yl)difluoromethyl)phosphonic acid] | 300 to 3000 | 1000 to 10000 |
| Cc1ccc2[nH]nc(C(=O)N3CC[C@H]4CC[C@@H](C(=O)N(C)C)N4C(=O)[C@@H](NC(=O)c4ccc5ccc(C(F)(F)P(=O)(O)O)cc5c4)C3)c2c1 [Compound 271, ((7-(((5S,8S,10aR)-8-(dimethylcarbamoyl)-3-(5-methyl-1H-indazole-3-carbonyl)-6-oxodecahydropyrrolo[1,2-a][1,5]diazocin-5-yl)carbamoyl)naphthalen-2-yl)difluoromethyl)phosphonic acid] | ≤ 300 | 1000 to 10000 |
| CC(C)CN1CC[C@H]2CC[C@@H](C(=O)N3C[C@@H](C#N)[C@H](c4ccccc4)C3)N2C(=O)[C@@H](NC(=O)c2cc3cc(C(F)(F)P(=O)(O)O)ccc3s2)C1 (relative stereo) [Compound 279, ((2-(((5S,8S,10aR)-8-((rel-trans)-3-cyano-4-phenylpyrrolidine-1-carbonyl)-3-isobutyl-6-oxodecahydropyrrolo[1,2-a][1,5]diazocin-5-yl)carbamoyl)benzo[b]thiophen-5-yl)difluoromethyl)phosphonic acid] | ≤ 300 | 100 to 1000 |
| CC(=O)N1CC[C@H]2CC[C@@H](C(=O)N3CC[C@H](C(=O)N4CCCCC4)C3)N2C(=O)[C@@H](NC(=O)c2cc3cc(C(F)(F)P(=O)(O)O)ccc3s2)C1 [Compound 193, ((2-(((5S,8S,10aR)-3-acetyl-6-oxo-8-((S)-3-(piperidine-1-carbonyl)pyrrolidine-1-carbonyl)decahydropyrrolo[1,2-a][1,5]diazocin-5-yl)carbamoyl)benzo[b]thiophen-5-yl)difluoromethyl)phosphonic acid] | 300 to 3000 | 100 to 1000 |
